Source: PMC9500858 (International Journal of Molecular Sciences, 2022)
Entries after “also recorded” stand apart in the source; their conditions may differ.

Assays:
[1] = 30% (v/v) hydrogen peroxide (H2O2); conditions: 37 °C for 24 h and 80 °C for 12 h, up to 24 h
HCl (1 M) = conditions: 80 °C for 12 h and 37°C for 24 h, up to 96 h
[2] = 1 M NaOH (base hydrolysis); conditions: 37 °C (24 h) and 80 °C (12 h), up to 96 h (time course, Figure 2D); 24 h at 37 °C; 12 h at 80 °C
[3] = 1 M HCl (acid hydrolysis); conditions: 37 °C (24 h) and 80 °C (12 h), up to 96 h (time course, Figure 2C); 24 h at 37 °C; 12 h at 80 °C

Substance | cleaved bond [1] | cleaved bond (HCl (1 M)) | fragment found [2] | fragment found [3]
HELM PEPTIDE1{[Cc1cc(O)cc(C)c1C[C@H](N)C(=O)[*:2]].[dK].F.F.K.K.P.F.I.L}$$$$V2.0 (N-terminus assumed; SMILES CC[C@H](C)[C@H](NC(=O)[C@H](Cc1ccccc1)NC(=O)[C@@H]1CCCN1C(=O)[C@H](CCCCN)NC(=O)[C@H](CCCCN)NC(=O)[C@H](Cc1ccccc1)NC(=O)[C@H](Cc1ccccc1)NC(=O)[C@@H](CCCCN)NC(=O)[C@@H](N)Cc1c(C)cc(O)cc1C)C(=O)N[C@@H](CC(C)C)C(=O)O) | Dmt1-D-Lys2 | Phe-Ile9; also recorded: D-Lys2-Phe | – | –
HELM PEPTIDE1{[Cc1cc(O)cc(C)c1C[C@H](N)C(=O)[*:2]].[dK].F.F.K.K.P.F.[CC(C)(C)[C@H](N[*:1])C(=O)[*:2]].L}$$$$V2.0 (N-terminus assumed; SMILES Cc1cc(O)cc(C)c1C[C@H](N)C(=O)N[C@H](CCCCN)C(=O)N[C@@H](Cc1ccccc1)C(=O)N[C@@H](Cc1ccccc1)C(=O)N[C@@H](CCCCN)C(=O)N[C@@H](CCCCN)C(=O)N1CCC[C@H]1C(=O)N[C@@H](Cc1ccccc1)C(=O)N[C@H](C(=O)N[C@@H](CC(C)C)C(=O)O)C(C)(C)C) | – | – | compound H—Phe-Lys-Lys-Pro-Phe-Tle-Leu; also recorded: compound K—Pro-Phe-Tle; also recorded: compound J (Pro-Phe-Tle-Leu) | compound H—Phe-Lys-Lys-Pro-Phe-Tle-Leu; also recorded: compound K—Pro-Phe-Tle
